Experimental data as given in patent US9617244B2, “Antibacterial quinoline derivatives” (JANSSEN PHARMACEUTICA NV, priority 2012, dated 2017).
≈ marks a conversion by molar mass, not a printed value.

Tests used:
[1] = system: Staphylococcus aureus (ATCC29213); assay: In-vitro anti-bacterial activity, microtitre plate assay, IC90 determination (non-mycobacterial strains); format: cell-based; details: 90% inhibitory concentration for bacterial growth, resazurin fluorescence; for IC90 STA B29213: 24 hours; for IC90: Staphylococcus aureus, ATCC29213, 24 h, read-out: IC90 STA B29213
In short: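 Inoculum of about 100 TCID50 (10–60 CFU/well) in Mueller-Hinton broth, serial five-fold compound dilutions, 24 h at 37 °C in air. Growth read by resazurin fluorescence (ex 530/em 590 nm); IC90 in μg/ml as 90% growth inhibition.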

[2] = system: Mycobacterium smegmatis (ATCC607); assay: In-vitro anti-bacterial activity against strain M. Smegmatis ATCC607; format: cell-based; details: 90% inhibitory concentration for bacterial growth, Alamar Blue fluorescence; for IC90 MSM 607: 48 hours; for IC90: Mycolicibacterium smegmatis, ATCC607, 48 h, read-out: IC90 MSM 607
In short: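 Serial five-fold compound dilutions in BSA-supplemented wells, inoculated with ~250 CFU/well in Mueller-Hinton broth, incubated 48 h at 37 °C, 5% CO2. Growth read by Alamar Blue fluorescence (ex 530/em 590 nm); IC90 in μg/ml.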

Row | IC90 STA B29213 [1] [µg/mL] | IC90 MSM 607 [2] [µg/mL] | IC90 [1] [µg/mL] | IC90 [2] [µg/mL] | SMILES
1 | 4.27 (≈ 8.13 µM) | 1.70 (≈ 3.24 µM) |  |  | COc1nc2ccc(Cl)cc2cc1C(c1ccc(Cl)cc1)C1(O)CCNC(Cc2ccc(F)cc2)C1 (centres unmarked) [Compound 347]
2 | >12.77 | >12.77 |  |  | COc1nc2ccccc2cc1C(c1ccccc1)C1(O)CCNC(Cc2ccccc2)C1 (centres unmarked) [Compound 401]
3 | 2.80 (≈ 5.35 µM) | 1.77 (≈ 3.38 µM) |  |  | CSc1ccc(C(c2cc3cc(Cl)ccc3[nH]c2=O)C2(O)CCNC(c3ccc(F)cc3C)C2)cc1 (centres unmarked) [Compound 350]
4 | 5.37 (≈ 9.15 µM) | 4.78 (≈ 8.14 µM) |  |  | COc1nc2ccc(S(C)(=O)=O)cc2cc1C(c1cccc(Cl)c1)C1(O)CCNC(Cc2ccc(F)cc2F)C1 (centres unmarked) [Compound 326]
5 | 1.86 (≈ 3.17 µM) | 2.94 (≈ 5.01 µM) |  |  | COc1nc2ccc(S(C)(=O)=O)cc2cc1C(c1ccc(Cl)cc1)C1(O)CCNC(Cc2ccc(F)c(F)c2)C1 (centres unmarked) [Compound 210]
6 | 3.09 (≈ 5.75 µM) | 1.95 (≈ 3.63 µM) |  |  | COc1nc2ccc(SC)cc2cc1C(c1cccc(Cl)c1)C1(O)CCNC(c2ccc(F)cc2C)C1 (centres unmarked) [Compound 166]
7 |  |  | 5.75 (≈ 12.6 µM) | 5.75 (≈ 12.6 µM) | COc1nc2ccc(SC)cc2cc1C(c1ccc(Cl)cc1)C1(O)CCNCC1(C)C (centres unmarked) [Compound 396]
8 | >13.49 | >13.49 |  |  | COc1nc2ccc(SC)cc2cc1C(c1ccc(Cl)cc1)C1(O)CCNCC1Cc1cccc(F)c1 (centres unmarked) [Compound 285]
9 | 2.08 (≈ 4.09 µM) | 1.04 (≈ 2.04 µM) |  |  | COc1nc2ccc(F)cc2cc1C(c1ccc(Cl)cc1)C1(O)CCNC(c2ccc(F)cc2C)C1 (centres unmarked) [Compound 330]
10 |  |  | 4.94 (≈ 9.99 µM) | 2.91 (≈ 5.89 µM) | COc1nc2ccc(Cl)cc2cc1C(c1ccc(Cl)cc1)C1(O)CCNC(c2cccnc2)C1 (centres unmarked) [Compound 471]
11 | 5.26 (≈ 10.7 µM) | 2.63 (≈ 5.33 µM) |  |  | COc1nc2ccc(Cl)cc2cc1C(c1ccc(Cl)cc1)C1(O)CCNC(c2ccccc2)C1 (centres unmarked) [Compound 405]
12 | 3.85 (≈ 6.71 µM) | 3.06 (≈ 5.33 µM) |  |  | O=c1[nH]c2ccc(Br)cc2cc1C(c1ccc(Cl)cc1)C1(O)CCNC(Cc2ccc(F)c(F)c2)C1 (centres unmarked) [Compound 133]
13 | 4.19 (≈ 7.97 µM) | 1.67 (≈ 3.18 µM) |  |  | COc1nc2ccc(Cl)cc2cc1C(c1ccc(Cl)cc1)C1(O)CCNC(Cc2ccc(F)cc2)C1 (centres unmarked) [Compound 348]
14 | 4.22 (≈ 7.86 µM) | 2.12 (≈ 3.95 µM) |  |  | COc1nc2ccc(SC)cc2cc1C(c1ccc(Cl)cc1)C1(O)CCNCC1Cc1cccc(F)c1 (centres unmarked) [Compound 286]
15 | 4.29 (≈ 8.17 µM) | 3.41 (≈ 6.49 µM) |  |  | COc1nc2ccc(SC)cc2cc1C(c1ccc(Cl)cc1)C1(O)CCNC(CC2CCCCC2)C1 (centres unmarked) [Compound 288]
16 | 3.63 (≈ 6.71 µM) | 7.23 (≈ 13.4 µM) |  |  | CSc1ccc2[nH]c(=O)c(C(c3ccc(Cl)cc3)C3(O)CCNC(Cc4ccc(F)c(F)c4)C3)cc2c1 (centres unmarked) [Compound 204]
17 | 7.24 (≈ 13.4 µM) | 3.63 (≈ 6.71 µM) |  |  | CSc1ccc2[nH]c(=O)c(C(c3cccc(Cl)c3)C3(O)CCNC(Cc4ccc(F)cc4F)C3)cc2c1 (centres unmarked) [Compound 311]
18 | 3.65 (≈ 6.71 µM) | 7.28 (≈ 13.4 µM) |  |  | O=c1[nH]c2ccc(Br)cc2cc1C(c1ccc(Cl)cc1)C1(O)CCNC(CC2CCCCC2)C1 (centres unmarked) [Compound 255]
19 |  |  | 2.5 (≈ 4.78 µM) | 2.22 (≈ 4.24 µM) | CSc1ccc2[nH]c(=O)c(C(c3ccc(Cl)cc3)C3(O)CCNC(c4ccc(F)cc4C)C3)cc2c1 (centres unmarked) [Compound 266]
20 | 4.10 (≈ 8.31 µM) | 6.50 (≈ 13.2 µM) |  |  | COc1nc2ccc(Cl)cc2cc1C(c1ccc(Cl)cc1)C1(O)CCNCC1c1ccccc1 (centres unmarked) [Compound 411]

Row | IC90 STA B29213 [1] [µg/mL] | IC90 MSM 607 [2] [µg/mL] | IC90 [1] [µg/mL] | IC90 [2] [µg/mL] | SMILES
21 | 5.16 (≈ 9.33 µM) | 4.10 (≈ 7.42 µM) |  |  | COc1nc2ccc(Br)cc2cc1C(c1ccc(Cl)cc1)C1(O)CCNC(Cc2ccccn2)C1 (centres unmarked) [Compound 380]
22 | >15.31 | >15.31 |  |  | CS(=O)(=O)c1ccc2[nH]c(=O)c(C(c3cccc(Cl)c3)C3(O)CCNC(Cc4ccc(F)cc4F)C3)cc2c1 (centres unmarked) [Compound 327]
23 |  |  | 10.3 (≈ 19.7 µM) | 7.26 (≈ 14 µM) | Cc1cc(F)ccc1C1CC(O)(C(c2ccccc2)c2cc3cc(-c4cccnc4)ccc3[nH]c2=O)CCN1 (centres unmarked) [Compound 236]
24 | 3.31 (≈ 6.77 µM) | 3.31 (≈ 6.77 µM) |  |  | CSc1ccc2nc(O)c(C(c3ccccc3)C3(O)CCNC(c4ccc(F)cc4C)C3)cc2c1 (centres unmarked) [Compound 183]
25 | 2.55 (≈ 5.01 µM) | 0.72 (≈ 1.41 µM) |  |  | COc1nc2ccccc2cc1C(c1ccc(Cl)cc1)C1(O)CCNC(Cc2ccc(F)c(F)c2)C1 (centres unmarked) [Compound 140]
26 | 14.50 (≈ 26.8 µM) | 11.52 (≈ 21.3 µM) |  |  | CSc1ccc2[nH]c(=O)c(C(c3cccc(Cl)c3)C3(O)CCNC(Cc4ccc(F)cc4F)C3)cc2c1 (centres unmarked) [Compound 309]
27 |  | 1.78 (≈ 3.5 µM) | 2 (≈ 3.93 µM) |  | COc1nc2ccccc2cc1C(c1ccc(Cl)cc1)C1(O)CCNC(Cc2ccc(F)c(F)c2)C1 (centres unmarked) [Compound 139]
28 | >14.78 | >14.78 |  |  | Cc1cc(F)ccc1C1CC(O)(C(c2cccc(Cl)c2)c2cc3cc(S(C)(=O)=O)ccc3[nH]c2=O)CCN1 (centres unmarked) [Compound 272]
29 | 1.93 (≈ 3.36 µM) | 3.43 (≈ 5.98 µM) |  |  | O=c1[nH]c2ccc(Br)cc2cc1C(c1ccc(Cl)cc1)C1(O)CCNC(Cc2ccc(F)cc2F)C1 (centres unmarked) [Compound 324]
30 | 7.67 (≈ 17.8 µM) | 8.61 (≈ 20 µM) |  |  | COc1nc2ccc(Cl)cc2cc1C(c1ccc(Cl)cc1)C1(O)CCNCC1C (centres unmarked) [Compound 422]
31 | 9.25 (≈ 20.3 µM) | 9.25 (≈ 20.3 µM) |  |  | COc1nc2ccccc2cc1C(c1ccccc1)C1(O)CCNC(c2ccc(F)cc2C)C1 (centres unmarked) [Compound 416]
32 |  | 5.43 (≈ 12.6 µM) | 5.43 (≈ 12.6 µM) |  | COc1nc2ccc(Cl)cc2cc1C(c1ccc(Cl)cc1)C1(O)CCNCC1C (centres unmarked) [Compound 420]
33 | 3.62 (≈ 6.69 µM) | 3.62 (≈ 6.69 µM) |  |  | CSc1ccc2[nH]c(=O)c(C(c3cccc(Cl)c3)C3(O)CCNC(Cc4ccc(F)cc4F)C3)cc2c1 (centres unmarked) [Compound 310]
34 |  |  | 18.2 (≈ 43 µM) | 18.2 (≈ 43 µM) | COc1nc2ccccc2cc1C(c1ccccc1)C1(O)CCNC(c2ccccc2)C1 (centres unmarked) [Compound 413]
35 | 1.92 (≈ 3.35 µM) | 1.92 (≈ 3.35 µM) |  |  | O=c1[nH]c2ccc(Br)cc2cc1C(c1ccc(Cl)cc1)C1(O)CCNC(Cc2ccc(F)cc2F)C1 (centres unmarked) [Compound 317]
36 | >13.88 | 3.49 (≈ 6.7 µM) |  |  | Cc1cc(F)ccc1C1CC(O)(C(c2ccccc2)c2cc3cc(S(C)(=O)=O)ccc3[nH]c2=O)CCN1 (centres unmarked) [Compound 264]
37 | 6.67 (≈ 13.5 µM) | 4.21 (≈ 8.53 µM) |  |  | O=c1[nH]c2ccc(Cl)cc2cc1C(c1ccc(Cl)cc1)C1(O)CCNC(Cc2ccccc2)C1 (centres unmarked) [Compound 240]
38 |  |  | 2.89 (≈ 6.32 µM) | 2.29 (≈ 5.01 µM) | C=CCC1CNCCC1(O)C(c1cccc(Cl)c1)c1cc2cc(Cl)ccc2nc1OC (centres unmarked) [Compound 394]
39 | 3.85 (≈ 6.71 µM) | 3.06 (≈ 5.33 µM) |  |  | O=c1[nH]c2ccc(Br)cc2cc1C(c1ccc(Cl)cc1)C1(O)CCNC(Cc2ccc(F)c(F)c2)C1 (centres unmarked) [Compound 126]
40 | 3.45 (≈ 6.31 µM) | 2.18 (≈ 3.98 µM) |  |  | COc1nc2ccc(SC(C)C)cc2cc1C(c1ccc(Cl)cc1)C1(O)CCNC(Cc2ccccc2)C1 (centres unmarked) [Compound 384]
